Consider 3 molecules from patent US7575908B1, “Immobilization method for producing active α1-acid glycoprotein” (Board of Regents of the University of Nebraska, priority 2005, dated 2009).

Common to all, as to assay type: binding
The subject of data set [1] is α1-acid glycoprotein. In words: Self-competition zonal elution of R- and S-propranolol on immobilized α1-acid glycoprotein HPLC column. As to conditions: pH 7.4 phosphate buffered saline, immobilized AGP column. How it is done:
(§1) The α1-acid glycoprotein and hydrazide-activated supports were downward slurry-packed at 28 MPa (4000 psi) into 50×4.1 mm I.D. stainless steel columns. These columns were enclosed in water jackets for temperature control. All studies, except those examining the temperature dependence of propranolol—α1-acid glycoprotein binding, were performed at 37° C. The mobile phases and packing solutions were prepared using pH 7.4 phosphate buffered saline (PBS, composition: 0.013 M potassium dihydrogen phosphate, 0.053 M disodium hydrogen phosphate and 0.133 M sodium chloride). Prior to use, all mobile phases were filtered through a 0.45 μm cellulose acetate filter and degassed under vacuum for 10 min. Elution of R- and S-propranolol was detected by monitoring the absorbance at 225 nm. Zonal elution studies were performed on the α1-acid glycoprotein column by applying pH 7.4 phosphate buffer solution containing up to 20 μM of the desired competing agent while making 20 μL injections of R-propranolol or S-propranolol onto the column. At each concentration of competing agent, three replicate injections of the desired analyte were made. The propranolol samples were prepared by dissolving 5.0 μM R- or S-propranolol in the appropriate mobile phase. All mobile phases containing propranolol were prepared using the individual enantiomers or propranolol. The flow rate ranged from 0.8 to 1.5 mL/min, with no significant changes in the retention factors being noted under this range of conditions.
(§2) The retention times for propranolol were calculated using a B/A0.5 method. The column void volume was determined by making injections of sodium nitrate onto a column containing only hydrazide-activated silica while monitoring the absorbance at 205 nm. All elution times were corrected for the extra-column volume of the chromatographic system, as determined by making injections of R-propranolol or S-propranolol when no column was present. A correction for the small amount of non-specific binding between propranolol and the hydrazide support was made by measuring the retention factors for this drug on a column equivalent in size to the α1-acid glycoprotein column, but containing only hydrazide-activated silica. This was measured at each propranolol concentration in the mobile phase and accounted for 3-15% of the retention factors noted for propranolol on the α1-acid glycoprotein column. […] The column was stored in pH 7.4 PBS buffer at 4° C. when not in use.
All of the results presented in Table 2 were generated by performing self-competition zonal elution studies at temperatures ranging from 5° C. to 37° C. in pH 7.4 phosphate buffered saline. The numbers in parentheses represent a range of ± one standard deviation.

Data set [2] has as its system α1-acid glycoprotein. Briefly: Retention of R- and S-propranolol on α1-acid glycoprotein column as a function of pH. As to conditions: for decrease of retention factor: pH decreased from 7.4 to 4.8. The method, then:
as §1, §2
The effect of other separation conditions such as pH were also evaluated. For instance, as the pH decreased from 7.4 to 4.8, the retention factor for R-propranolol decreased from 132 to 17.8 (87%), while the retention factor for S-propranolol decreased from 167 to 17.8 (89%).

Data set [3] in a line: Effects of periodate oxidation on activity of immobilized α1-acid glycoprotein (chromatographic studies). The following applies: 37° C., pH 7.4 PBS. The method, then:
FIG. 2A illustrates an exemplary method for preparing oxidized α1-acid glycoprotein. The conditions chosen for this reaction vary according to the final degree of oxidation desired. […] This mixture was allowed to react for 10 to 15 minutes at room temperature in the dark and quenched by adding 0.25 mL ethylene glycol per milliliter of sample. After this new mixture had reacted for 2 minutes, it was put into a dialysis bag at 4° C. for 2 hours against 2 liters pH 7.0, 20 mM acetate buffer containing 0.15 M sodium chloride. This was followed by three additional two-hour dialysis cycles against 2 liter portions of pH 7.0, 0.10 M potassium phosphate buffer.
Oxidized α1-acid glycoprotein was immobilized to hydrazide-activated silica by a procedure illustrated in FIG. 2C. In exemplary studies, a 5 mL portion of pH 7.0, 0.10 M phosphate buffer containing 1.5 mg/mL oxidized α1-acid glycoprotein was mixed with 0.03 grams of hydrazide-activated silica. This mixture was sonicated under aspirator vacuum for 10 minutes to remove any air bubbles from the suspension. It was then placed onto a shaker and allowed to react at 4° C. for up to seven days, with more than two days being optimum. The reaction was stopped by centrifuging the reaction mixture and removing the supernatant. The support was next washed several times with pH 7.0, 0.10 M phosphate buffer, followed by several additional washings with deionized water. Any hydrazide groups remaining on this support were removed by adding a 200-fold excess of glyceraldehyde versus the support's original hydrazide content. This mixture was shaken at 4° C. for 6 hours. The support was then washed several times with pH 7.0, 0.10 M phosphate buffer. The amount of immobilized α1-acid glycoprotein was determined by comparing the final and initial concentrations of α1-acid glycoprotein in the reaction slurry, using absorbance measurements at 280 nm.
as §1
The retention times for propranolol were calculated using a B/A0.5 method. The column void volume was determined by making injections of sodium nitrate onto a column containing only hydrazide-activated silica while monitoring the absorbance at 205 nm. All elution times were corrected for the extra-column volume of the chromatographic system, as determined by making injections of R-propranolol or S-propranolol when no column was present. […]

The mark [4] stands for this setting: AGP oxidized with 10 mM periodate.
The mark [5] stands for this setting: AGP oxidized with 20 mM periodate.
Where [6] appears, read: AGP oxidized with 50 mM periodate.

With `CC(C)NC[C@@H](O)COc1cccc2ccccc12` [R-Propranolol], the “Association equilibrium constant, Ka” value in the data set with α1-acid glycoprotein [1] (5° C.) was 8 (±2) × 10^6 M^−1; in the data set on α1-acid glycoprotein [1] (15° C.) it was 7 (±1) × 10^6 M^−1; with α1-acid glycoprotein [1] (25° C.), 3.9 (±0.2) × 10^6 M^−1; in the data set with α1-acid glycoprotein [1] (37° C.), 2.7 (±0.2) × 10^6 M^−1. Further, the retention factor turned out to be 17.8 in the data set on α1-acid glycoprotein [2] (pH 4.8, AGP column) and 132 in the data set on α1-acid glycoprotein [2] (pH 7.4, AGP column). Moreover, the “decrease of retention factor” value in the data set on α1-acid glycoprotein [2] is given as 87%.
Consider `CC(C)NCC(O)COc1cccc2ccccc12` (centres unmarked) [S-Propranolol], for which the “Association equilibrium constant, Ka” value was 11 (±3) × 10^6 M^−1 in the data set with α1-acid glycoprotein [1] (5° C.), 9 (±2) × 10^6 M^−1 with α1-acid glycoprotein [1] (15° C.), 5.2 (±1.7) × 10^6 M^−1 with α1-acid glycoprotein [1] (25° C.) and 4.2 (±0.3) × 10^6 M^−1 with α1-acid glycoprotein [1] (37° C.). The retention factor was 17.8 with α1-acid glycoprotein [2] (pH 4.8, AGP column) and 167 in the data set with α1-acid glycoprotein [2] (pH 7.4, AGP column). Further, in the data set on α1-acid glycoprotein [2], the “decrease of retention factor” value turned out to be 89%.
For α1-acid glycoprotein [AGP], the Binding capacity in data set [3] (setting [4]) is 6.8 (±0.2) mg/g silica; in data set [3] (setting [5]), 6.3 (±0.3) mg/g silica; in data set [3] (setting [6]), 6.8 (±0.3) mg/g silica. The Specific activity in data set [3] (setting [4]) is 0.67 (±0.02) mg/mg AGP; in data set [3] (setting [5]), 0.40 (±0.02) mg/mg AGP; in data set [3] (setting [6]) it was 0.47 (±0.03) mg/mg AGP.
